Patent publication US20230000808A1, “COMPOSITIONS AND METHODS EXCLUDING OR WITH REDUCED GLUTAMINE FOR THE TREATMENT OF HEMOGLOBINOPATHIES AND THALASSEMIAS” (AXCELLA HEALTH INC., priority 2019, published 2023)

Experiments:
MCP-1 = MCP-1 in HLMVEC/TNF-α model (ELISA); assay type: cell-based, human; conditions: for MCP-1 expression relative to TNF Control, Mean % Change: 20×HMDB amino acids, 24 h co-treatment
Description: Cells were incubated at 37° C., 5% CO2 in a humidified incubator. Cells were passaged at least 1-2 times in the complete growth medium every 2-3 days until ready to plate for cell culture studies. Once ready for experiment, HLMVECs were seeded at a density of 6K cells per well of the 96 well optical microplates (Thermofisher) in the complete growth medium described above and the plated cells were incubated for 24 hours at 37° C. in a humidified incubator with 5% CO2. […] The values are published in the Human Metabolome Database (Wishart D S, et al., Nucleic Acids Res. 2007 January; 35:[…]-6) which is hereby incorporated by reference in its entirety. The medium was also supplemented with growth factors & antibiotics from EGM2-MV kit (Lonza) except the kit-provided FBS which was substituted with dialyzed FBS (Hyclone). […] Human MCP-1 was measured by ELISA (Human […] DuoSet ELISA, R&D Systems) at 1/70 dilution in 1× Reagent Diluent (Reagent Ancillary Kit 2, R&D Systems). Samples were run in triplicates. […] Samples were run in triplicates. Mean percent change in cytokine levels relative to vehicle are reported herein. Statistical analysis was done using two sample t-test.

IL-6 [1] = experiment: LPS-induced IL-6 secretion in primary human monocyte-derived macrophages (ELISA); assay type: cell-based; design: Donor 1 IL-6 Measurements Mean: unit not given here; conditions: for Donor 1 IL-6 Measurements Mean / Donor 2 IL-6 Measurements Mean / Donor 3 IL-6 Measurements Mean: LPS, baseline subtracted; for effect on LPS-induced IL-6 secretion: Two Way ANOVA Dunnett
Description: (§1) Primary human PMBC derived macrophages were seeded on day 0 at 3.0×10^4 cells per well in 96-well microplates (ThermoFisher) in Dulbecco's Modified Eagle Medium (DMEM) (Gibco) supplemented with penicillin-streptomycin (Hyclone) and 10% heat inactivated fetal bovine serum (HI-FBS) (Atlanta Bio) and incubated overnight at 37° C., 5% CO2. On day 1, cells were washed once with 150 μl per well DPBS (Gibco) and treated with 75 μl of: • a. […] The same medium described above with one amino acid at various concentrations including complete dropout. […] On day 3, the supernatant was collected and immediately frozen in −80° C. freezer. Cells were washed once with 150 μl DPBS and viability was assessed using the WST-8 Cell Proliferation Cytotoxicity Assay (Dojindo). […] Protein levels in supernatant samples were analyzed by ELISA for IL-6 and TNFα using commercially available kits (R&D Systems) according to manufacturer-supplied protocols.

VCAM-1 = VCAM-1 cell integrated intensity in HLMVEC treated with TNF-α (immunofluorescence); assay type: cell-based, human; conditions: for VCAM-1 expression in HLMVEC: 0.5 ng/mL TNF-α, amino acids at 20× HMDB, 24 hours
Summary of the method: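 Primary human lung microvascular endothelial cells, 24 h in medium with SCD-like amino acid profile plus 0.5 ng/mL TNF-α, with or without amino acids at 20× mean plasma level. Fixed, immunostained for ICAM-1 and VCAM-1; integrated intensity per cell by high-content imaging.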

IL-6 [2] = experiment: Secreted IL-6 in HLMVEC treated with TNF-α (FirePlex); assay type: cell-based, human
Summary of the method: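 Primary human lung microvascular endothelial cells, after overnight attachment, were switched to medium with amino acid levels mimicking SCD patient blood, plus 0.5 ng/mL TNF-α with or without amino acid treatments at 20× mean physiological plasma concentrations. Supernatant IL-6 measured by FirePlex immunoassay, interpolated from a standard curve.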

TNFα = experiment: LPS-induced TNF-α secretion in primary human monocyte-derived macrophages (ELISA); assay type: cell-based; conditions: for TNF-α Measurements Mean: baseline subtracted; for effect on LPS-induced TNF-α secretion: Two Way ANOVA Dunnett
Description: as §1

[3] = HLMVEC + 0.5 ng/mL TNF-α, 24 h, amino acids 20x HMDB, Nac/Cit/Car 5 mM as bracketed

NC(=O)CC[C@H](N)C(=O)O [Glutamine, L-glutamine]
MCP-1 expression relative to TNF Control, Mean % Change (MCP-1; TNF Conc 0.5 ng/mL): −11.673%
MCP-1 expression relative to TNF Control, Mean % Change (MCP-1; TNF Conc 25 ng/mL): −12.1569%
MCP-1 level reduction relative to the controls (MCP-1; both TNF-α treatment groups): ~12%
Donor 1 IL-6 Measurements Mean (IL-6 [1]; Donor 1, Conc. 749 μM (baseline)): 0
Donor 1 IL-6 Measurements Mean (IL-6 [1]; Donor 1, Conc. 3747 μM): 291.5443
Donor 1 IL-6 Measurements Mean (IL-6 [1]; Donor 1, Conc. 11242 μM): 397.1745
Donor 1 IL-6 Measurements Mean (IL-6 [1]; Donor 1, Conc. 22484 μM): 440.1437
effect on LPS-induced IL-6 secretion (IL-6 [1]; Donor 1): increased
Donor 2 IL-6 Measurements Mean (IL-6 [1]; Donor 2, Conc. 749 μM (baseline)): 2.37E−15
Donor 2 IL-6 Measurements Mean (IL-6 [1]; Donor 2, Conc. 3747 μM): 22.52
Donor 2 IL-6 Measurements Mean (IL-6 [1]; Donor 2, Conc. 11242 μM): 63.31
Donor 2 IL-6 Measurements Mean (IL-6 [1]; Donor 2, Conc. 22484 μM): 34.39
effect on LPS-induced IL-6 secretion (IL-6 [1]; Donor 2): increased
Donor 3 IL-6 Measurements Mean (IL-6 [1]; Donor 3, Conc. 749 μM (baseline)): 3.79E−14
Donor 3 IL-6 Measurements Mean (IL-6 [1]; Donor 3, Conc. 3747 μM): 25.35
Donor 3 IL-6 Measurements Mean (IL-6 [1]; Donor 3, Conc. 11242 μM): 98.4903
Donor 3 IL-6 Measurements Mean (IL-6 [1]; Donor 3, Conc. 22484 μM): 108.5158
effect on LPS-induced IL-6 secretion (IL-6 [1]; Donor 3): significantly increased
VCAM-1 expression in HLMVEC (VCAM-1): increased
IL-6 secretion from TNFα treated HLMVEC (IL-6 [2]; 0.5 ng/mL TNF-α, amino acids at 20× HMDB, 24 hours): increased
TNF-α Measurements Mean (TNFα; Donor 1, Conc. 749 μM (baseline), LPS): 0
TNF-α Measurements Mean (TNFα; Donor 1, Conc. 3747 μM, LPS): −45.7
TNF-α Measurements Mean (TNFα; Donor 1, Conc. 11242 μM, LPS): −65.24
TNF-α Measurements Mean (TNFα; Donor 1, Conc. 22484 μM, LPS): −103.07
TNF-α Measurements Mean (TNFα; Donor 2, Conc. 749 μM (baseline), LPS): −9.5E−15
TNF-α Measurements Mean (TNFα; Donor 2, Conc. 3747 μM, LPS): 9.338
TNF-α Measurements Mean (TNFα; Donor 2, Conc. 11242 μM, LPS): 20.04
TNF-α Measurements Mean (TNFα; Donor 2, Conc. 22484 μM, LPS): 11.5
effect on LPS-induced TNF-α secretion (TNFα; Donor 2): increased
TNF-α Measurements Mean (TNFα; Donor 3, Conc. 749 μM (baseline), LPS): 0
TNF-α Measurements Mean (TNFα; Donor 3, Conc. 3747 μM, LPS): 1.936
TNF-α Measurements Mean (TNFα; Donor 3, Conc. 11242 μM, LPS): 18
TNF-α Measurements Mean (TNFα; Donor 3, Conc. 22484 μM, LPS): 29.14
effect on LPS-induced TNF-α secretion (TNFα; Donor 3): increased

CC(=O)N[C@@H](CS)C(=O)O [N-Acetyl Cysteine, N-acetylcysteine]
Donor 1 IL-6 Measurements Mean (IL-6 [1]; Donor 1, Conc. 0 X (baseline)): 0
Donor 1 IL-6 Measurements Mean (IL-6 [1]; Donor 1, Conc. 5 X): 308.1772
Donor 1 IL-6 Measurements Mean (IL-6 [1]; Donor 1, Conc. 10 X): −121.142
Donor 1 IL-6 Measurements Mean (IL-6 [1]; Donor 1, Conc. 20 X): −553.802
Donor 1 IL-6 Measurements Mean (IL-6 [1]; Donor 1, Conc. 40 X): −914.194
effect on LPS-induced IL-6 secretion (IL-6 [1]; Donor 1): significantly reduced
Donor 2 IL-6 Measurements Mean (IL-6 [1]; Donor 2, Conc. 0 X (baseline)): −2.4E−15
Donor 2 IL-6 Measurements Mean (IL-6 [1]; Donor 2, Conc. 5 X): −0.7946
Donor 2 IL-6 Measurements Mean (IL-6 [1]; Donor 2, Conc. 10 X): −9.751
Donor 2 IL-6 Measurements Mean (IL-6 [1]; Donor 2, Conc. 20 X): −24.9999
Donor 2 IL-6 Measurements Mean (IL-6 [1]; Donor 2, Conc. 40 X): −33.7585
effect on LPS-induced IL-6 secretion (IL-6 [1]; Donor 2): significantly reduced
Donor 3 IL-6 Measurements Mean (IL-6 [1]; Donor 3, Conc. 0 X (baseline)): −9.5E−15
Donor 3 IL-6 Measurements Mean (IL-6 [1]; Donor 3, Conc. 5 X): −70.3269
Donor 3 IL-6 Measurements Mean (IL-6 [1]; Donor 3, Conc. 10 X): −103.586
Donor 3 IL-6 Measurements Mean (IL-6 [1]; Donor 3, Conc. 20 X): −122.656
Donor 3 IL-6 Measurements Mean (IL-6 [1]; Donor 3, Conc. 40 X): −140.851
effect on LPS-induced IL-6 secretion (IL-6 [1]; Donor 3): significantly reduced
VCAM-1 expression in HLMVEC (VCAM-1): greatly reduced
VCAM-1 Cell Integrated Intensity Median (VCAM-1; [3]): −0.315
Secreted IL6 Median (IL-6 [2]; [3]): −0.497
TNF-α Measurements Mean (TNFα; Donor 1, Conc. 5 X, LPS 0.15 ng/mL): −326.24
TNF-α Measurements Mean (TNFα; Donor 1, Conc. 10 X, LPS 0.15 ng/mL): −446.88
TNF-α Measurements Mean (TNFα; Donor 1, Conc. 20 X, LPS 0.15 ng/mL): −561.33
TNF-α Measurements Mean (TNFα; Donor 1, Conc. 40 X, LPS 0.15 ng/mL): −644.49
effect on LPS-induced TNF-α secretion (TNFα; Donor 1): significantly reduced
TNF-α Measurements Mean (TNFα; Donor 2, Conc. 5 X, LPS 0.15 ng/mL): −54.1596
TNF-α Measurements Mean (TNFα; Donor 2, Conc. 10 X, LPS 0.15 ng/mL): −70.8382
TNF-α Measurements Mean (TNFα; Donor 2, Conc. 20 X, LPS 0.15 ng/mL): −88.6528
TNF-α Measurements Mean (TNFα; Donor 2, Conc. 40 X, LPS 0.15 ng/mL): −103.984
effect on LPS-induced TNF-α secretion (TNFα; Donor 2): significantly reduced
TNF-α Measurements Mean (TNFα; Donor 3, Conc. 5 X, LPS 0.15 ng/mL): −33.6246
TNF-α Measurements Mean (TNFα; Donor 3, Conc. 10 X, LPS 0.15 ng/mL): −41.7266
TNF-α Measurements Mean (TNFα; Donor 3, Conc. 20 X, LPS 0.15 ng/mL): −48.4373
TNF-α Measurements Mean (TNFα; Donor 3, Conc. 40 X, LPS 0.15 ng/mL): −55.3093
effect on LPS-induced TNF-α secretion (TNFα; Donor 3): significantly reduced
